Legend:
[1] = tested on: Epidermal growth factor receptor (Homo sapiens), P00533 [UNDEFINED MUTATION]; details: Compound concentration 1000.0 nM
[2] = target: Calcium/calmodulin-dependent protein kinase type II subunit alpha (Homo sapiens) (UniProt Q9UQM7); details: Compound concentration 1000.0 nM
[3] = target: Mitogen-activated protein kinase 10 (Homo sapiens) (UniProt P53779); details: Compound concentration 1000.0 nM
[4] = target: RAC-alpha serine/threonine-protein kinase (Homo sapiens) (UniProt P31749); details: Compound concentration 1000.0 nM
Sequence of RAC-alpha serine/threonine-protein kinase (Homo sapiens) (P31749 whole entry): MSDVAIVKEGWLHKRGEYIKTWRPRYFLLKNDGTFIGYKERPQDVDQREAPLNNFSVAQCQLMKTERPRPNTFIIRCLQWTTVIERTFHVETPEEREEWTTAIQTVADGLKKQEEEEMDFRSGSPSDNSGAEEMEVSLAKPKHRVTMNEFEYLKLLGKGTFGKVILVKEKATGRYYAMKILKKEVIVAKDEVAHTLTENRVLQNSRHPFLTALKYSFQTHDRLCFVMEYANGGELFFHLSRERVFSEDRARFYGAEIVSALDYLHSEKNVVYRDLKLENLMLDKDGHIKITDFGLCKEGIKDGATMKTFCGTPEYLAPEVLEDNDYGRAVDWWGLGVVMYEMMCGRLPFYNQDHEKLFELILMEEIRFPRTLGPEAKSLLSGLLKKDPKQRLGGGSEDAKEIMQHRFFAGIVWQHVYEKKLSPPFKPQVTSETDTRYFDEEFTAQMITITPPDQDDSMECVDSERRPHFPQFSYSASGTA

[5] = target: T1, Serine/threonine-protein kinase 17A (Homo sapiens) (UniProt Q9UEE5); details: Compound concentration 1000.0 nM
T1 sequence (whole entry): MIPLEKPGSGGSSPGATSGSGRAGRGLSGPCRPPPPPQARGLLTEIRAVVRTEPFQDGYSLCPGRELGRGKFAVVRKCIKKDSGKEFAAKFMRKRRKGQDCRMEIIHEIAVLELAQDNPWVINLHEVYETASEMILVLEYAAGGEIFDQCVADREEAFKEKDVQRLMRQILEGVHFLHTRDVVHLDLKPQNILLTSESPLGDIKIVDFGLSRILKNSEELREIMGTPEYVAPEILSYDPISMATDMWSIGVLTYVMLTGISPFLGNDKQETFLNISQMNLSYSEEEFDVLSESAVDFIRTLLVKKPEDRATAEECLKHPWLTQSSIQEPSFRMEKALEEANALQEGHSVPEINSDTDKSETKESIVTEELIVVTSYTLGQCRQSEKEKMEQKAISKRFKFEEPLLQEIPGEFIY

[6] = target: Mitogen-activated protein kinase 1 (Homo sapiens) (UniProt P28482); details: Compound concentration 1000.0 nM
[7] = target: Serine/threonine-protein kinase 33 (Homo sapiens) (UniProt Q9BYT3); details: Compound concentration 1000.0 nM
Sequence of Serine/threonine-protein kinase 33 (Homo sapiens) (Q9BYT3 whole entry, looked up): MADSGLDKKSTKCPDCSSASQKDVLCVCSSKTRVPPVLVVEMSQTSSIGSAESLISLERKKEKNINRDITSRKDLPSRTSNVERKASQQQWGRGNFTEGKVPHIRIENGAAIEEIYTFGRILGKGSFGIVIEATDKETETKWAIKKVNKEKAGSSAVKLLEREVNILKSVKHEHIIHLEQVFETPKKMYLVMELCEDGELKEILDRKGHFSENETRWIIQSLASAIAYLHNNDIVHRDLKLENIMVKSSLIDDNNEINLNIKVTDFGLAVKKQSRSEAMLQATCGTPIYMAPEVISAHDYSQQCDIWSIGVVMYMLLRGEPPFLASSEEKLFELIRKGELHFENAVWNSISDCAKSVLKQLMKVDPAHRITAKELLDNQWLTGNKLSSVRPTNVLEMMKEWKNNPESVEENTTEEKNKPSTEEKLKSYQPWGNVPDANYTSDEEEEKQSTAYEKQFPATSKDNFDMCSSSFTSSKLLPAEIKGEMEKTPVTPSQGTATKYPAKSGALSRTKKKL

[8] = target: T2, Serine/threonine-protein kinase ULK3 (Homo sapiens) (UniProt Q6PHR2); details: Compound concentration 1000.0 nM
T2 sequence (whole entry): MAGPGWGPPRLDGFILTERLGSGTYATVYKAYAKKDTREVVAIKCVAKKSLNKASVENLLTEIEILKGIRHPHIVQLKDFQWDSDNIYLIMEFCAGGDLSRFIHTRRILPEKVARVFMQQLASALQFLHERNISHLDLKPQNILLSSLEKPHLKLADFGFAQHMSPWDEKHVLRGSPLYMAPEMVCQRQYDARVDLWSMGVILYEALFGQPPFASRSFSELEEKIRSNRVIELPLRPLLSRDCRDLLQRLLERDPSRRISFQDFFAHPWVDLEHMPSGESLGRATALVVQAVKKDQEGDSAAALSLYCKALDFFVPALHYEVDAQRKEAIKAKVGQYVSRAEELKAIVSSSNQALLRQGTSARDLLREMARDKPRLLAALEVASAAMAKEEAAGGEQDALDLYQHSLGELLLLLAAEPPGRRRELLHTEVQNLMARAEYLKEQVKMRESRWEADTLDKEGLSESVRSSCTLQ

[9] = target: Receptor-interacting serine/threonine-protein kinase 1 (Homo sapiens) (UniProt Q13546); details: Compound concentration 1000.0 nM
Sequence of Receptor-interacting serine/threonine-protein kinase 1 (Homo sapiens) (Q13546 whole entry): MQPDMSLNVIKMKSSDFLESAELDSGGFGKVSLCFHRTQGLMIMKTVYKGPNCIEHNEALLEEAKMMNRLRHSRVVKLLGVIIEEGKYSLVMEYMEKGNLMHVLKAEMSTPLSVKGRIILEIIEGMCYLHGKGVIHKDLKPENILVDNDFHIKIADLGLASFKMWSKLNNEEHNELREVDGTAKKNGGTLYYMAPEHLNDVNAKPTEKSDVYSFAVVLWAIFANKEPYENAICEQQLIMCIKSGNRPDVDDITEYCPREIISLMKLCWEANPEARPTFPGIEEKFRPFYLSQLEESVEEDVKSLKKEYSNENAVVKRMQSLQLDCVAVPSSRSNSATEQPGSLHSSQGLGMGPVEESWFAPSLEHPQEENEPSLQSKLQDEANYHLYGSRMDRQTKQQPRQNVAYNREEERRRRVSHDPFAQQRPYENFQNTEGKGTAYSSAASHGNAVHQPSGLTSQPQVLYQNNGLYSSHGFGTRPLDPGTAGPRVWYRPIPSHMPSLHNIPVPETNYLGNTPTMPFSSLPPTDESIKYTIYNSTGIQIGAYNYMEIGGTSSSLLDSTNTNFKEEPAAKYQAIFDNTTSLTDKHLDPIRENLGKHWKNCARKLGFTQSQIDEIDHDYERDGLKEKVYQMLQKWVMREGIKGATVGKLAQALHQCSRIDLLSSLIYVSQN

[10] = target: SRSF protein kinase 2 (Homo sapiens) (UniProt P78362); details: Compound concentration 1000.0 nM
Sequence of SRSF protein kinase 2 (Homo sapiens) (P78362 whole entry, looked up): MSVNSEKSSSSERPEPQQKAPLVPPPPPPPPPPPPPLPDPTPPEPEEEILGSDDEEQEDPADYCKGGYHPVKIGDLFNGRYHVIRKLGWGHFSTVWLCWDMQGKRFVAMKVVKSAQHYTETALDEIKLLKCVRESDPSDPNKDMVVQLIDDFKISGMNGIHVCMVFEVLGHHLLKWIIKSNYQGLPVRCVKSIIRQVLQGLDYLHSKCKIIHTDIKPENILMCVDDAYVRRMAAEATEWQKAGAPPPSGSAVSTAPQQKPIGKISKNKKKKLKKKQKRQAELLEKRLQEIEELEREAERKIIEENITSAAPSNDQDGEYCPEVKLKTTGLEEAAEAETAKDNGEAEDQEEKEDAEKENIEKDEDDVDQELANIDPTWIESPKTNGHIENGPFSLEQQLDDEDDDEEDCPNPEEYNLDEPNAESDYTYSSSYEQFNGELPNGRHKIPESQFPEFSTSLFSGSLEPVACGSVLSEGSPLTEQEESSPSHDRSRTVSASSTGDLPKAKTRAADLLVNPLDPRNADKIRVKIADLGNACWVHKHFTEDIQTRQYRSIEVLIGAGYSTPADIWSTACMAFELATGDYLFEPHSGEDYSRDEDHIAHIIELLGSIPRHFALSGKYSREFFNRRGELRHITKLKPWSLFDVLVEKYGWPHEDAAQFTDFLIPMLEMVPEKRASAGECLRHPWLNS

[11] = tested on: Tyrosine-protein kinase ABL1 (Homo sapiens), P00519 [M351T]; details: Compound concentration 1000.0 nM
[12] = tested on: Tyrosine-protein kinase ABL1 (Homo sapiens), P00519 [F317L]; details: Compound concentration 1000.0 nM
[13] = target: 5-hydroxytryptamine receptor 1E (Homo sapiens) (UniProt P28566); details: Compound concentration 10.0 uM
[14] = target: T3, Serine/threonine-protein kinase Sgk1 (Homo sapiens) (UniProt O00141); details: Compound concentration 1000.0 nM
T3 sequence (whole entry): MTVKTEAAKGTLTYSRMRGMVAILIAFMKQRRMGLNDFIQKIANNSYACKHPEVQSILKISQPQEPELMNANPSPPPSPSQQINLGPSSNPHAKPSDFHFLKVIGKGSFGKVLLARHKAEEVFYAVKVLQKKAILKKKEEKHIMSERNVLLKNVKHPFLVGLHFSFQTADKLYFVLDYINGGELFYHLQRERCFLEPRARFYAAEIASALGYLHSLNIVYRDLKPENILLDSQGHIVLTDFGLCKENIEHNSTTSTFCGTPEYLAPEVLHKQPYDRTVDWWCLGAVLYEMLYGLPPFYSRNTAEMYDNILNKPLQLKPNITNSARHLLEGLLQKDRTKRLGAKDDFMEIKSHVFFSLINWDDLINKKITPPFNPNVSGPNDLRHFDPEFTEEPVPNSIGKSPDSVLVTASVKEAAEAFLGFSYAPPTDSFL

[15] = tested on: Mast/stem cell growth factor receptor Kit (Homo sapiens), P10721 [A829P]; details: Compound concentration 1000.0 nM
Sequence of Mast/stem cell growth factor receptor Kit (Homo sapiens), P10721 [A829P] (P10721 whole entry A829P): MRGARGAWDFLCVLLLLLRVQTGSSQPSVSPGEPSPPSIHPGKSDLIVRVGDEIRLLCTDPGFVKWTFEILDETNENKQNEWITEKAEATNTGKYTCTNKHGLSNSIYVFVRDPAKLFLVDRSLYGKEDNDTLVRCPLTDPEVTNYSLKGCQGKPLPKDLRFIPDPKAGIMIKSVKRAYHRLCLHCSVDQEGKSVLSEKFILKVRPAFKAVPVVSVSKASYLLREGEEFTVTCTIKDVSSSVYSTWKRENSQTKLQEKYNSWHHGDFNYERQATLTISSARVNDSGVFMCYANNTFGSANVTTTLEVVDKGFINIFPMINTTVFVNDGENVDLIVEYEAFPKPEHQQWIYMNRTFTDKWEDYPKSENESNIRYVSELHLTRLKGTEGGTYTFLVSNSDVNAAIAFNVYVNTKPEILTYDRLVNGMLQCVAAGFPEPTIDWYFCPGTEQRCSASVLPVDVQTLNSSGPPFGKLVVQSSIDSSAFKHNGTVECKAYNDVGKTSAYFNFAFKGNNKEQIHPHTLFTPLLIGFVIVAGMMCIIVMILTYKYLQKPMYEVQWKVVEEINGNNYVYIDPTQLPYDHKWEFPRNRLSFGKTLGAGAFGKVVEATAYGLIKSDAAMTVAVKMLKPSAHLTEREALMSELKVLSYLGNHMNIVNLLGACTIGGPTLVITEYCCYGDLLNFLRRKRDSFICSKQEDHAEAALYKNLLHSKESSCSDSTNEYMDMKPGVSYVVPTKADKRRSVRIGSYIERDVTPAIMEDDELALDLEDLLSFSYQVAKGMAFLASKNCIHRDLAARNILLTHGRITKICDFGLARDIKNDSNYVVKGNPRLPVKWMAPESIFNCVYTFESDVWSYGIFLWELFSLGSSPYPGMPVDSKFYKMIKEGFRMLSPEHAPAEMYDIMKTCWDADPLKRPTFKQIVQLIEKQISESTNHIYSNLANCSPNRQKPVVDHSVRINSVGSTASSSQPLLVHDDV

[16] = target: Proto-oncogene tyrosine-protein kinase ROS (Homo sapiens) (UniProt P08922); details: Compound concentration 1000.0 nM
[17] = target: Serine/threonine-protein kinase pim-1 (Homo sapiens) (UniProt P11309); details: Compound concentration 1000.0 nM
Sequence of Serine/threonine-protein kinase pim-1 (Homo sapiens) (P11309 whole entry, looked up): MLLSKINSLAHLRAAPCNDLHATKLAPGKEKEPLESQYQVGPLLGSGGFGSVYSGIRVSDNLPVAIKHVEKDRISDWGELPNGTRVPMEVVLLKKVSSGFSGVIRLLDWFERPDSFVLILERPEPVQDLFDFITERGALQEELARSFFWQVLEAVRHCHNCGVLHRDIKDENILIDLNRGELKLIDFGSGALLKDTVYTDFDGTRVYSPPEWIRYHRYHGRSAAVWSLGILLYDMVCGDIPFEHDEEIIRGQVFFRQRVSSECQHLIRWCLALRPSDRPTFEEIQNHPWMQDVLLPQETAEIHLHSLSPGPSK

[18] = target: Serine/threonine-protein kinase pim-2 (Homo sapiens) (UniProt Q9P1W9); details: Compound concentration 1000.0 nM
Sequence of Serine/threonine-protein kinase pim-2 (Homo sapiens) (Q9P1W9 whole entry, looked up): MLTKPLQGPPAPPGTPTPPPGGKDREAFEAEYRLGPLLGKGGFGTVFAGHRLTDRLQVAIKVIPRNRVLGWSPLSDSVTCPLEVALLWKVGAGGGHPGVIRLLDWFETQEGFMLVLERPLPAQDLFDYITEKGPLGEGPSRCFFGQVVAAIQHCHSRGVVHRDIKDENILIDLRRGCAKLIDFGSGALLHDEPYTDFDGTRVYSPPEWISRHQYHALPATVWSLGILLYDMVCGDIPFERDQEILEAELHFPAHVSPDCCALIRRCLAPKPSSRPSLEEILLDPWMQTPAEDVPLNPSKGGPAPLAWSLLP

[19] = tested on: Mast/stem cell growth factor receptor Kit (Homo sapiens), P10721 [L576P]; details: Compound concentration 1000.0 nM
[20] = target: MAP kinase-activated protein kinase 2 (Homo sapiens) (UniProt P49137); details: Compound concentration 1000.0 nM
Sequence of MAP kinase-activated protein kinase 2 (Homo sapiens) (P49137 whole entry, looked up): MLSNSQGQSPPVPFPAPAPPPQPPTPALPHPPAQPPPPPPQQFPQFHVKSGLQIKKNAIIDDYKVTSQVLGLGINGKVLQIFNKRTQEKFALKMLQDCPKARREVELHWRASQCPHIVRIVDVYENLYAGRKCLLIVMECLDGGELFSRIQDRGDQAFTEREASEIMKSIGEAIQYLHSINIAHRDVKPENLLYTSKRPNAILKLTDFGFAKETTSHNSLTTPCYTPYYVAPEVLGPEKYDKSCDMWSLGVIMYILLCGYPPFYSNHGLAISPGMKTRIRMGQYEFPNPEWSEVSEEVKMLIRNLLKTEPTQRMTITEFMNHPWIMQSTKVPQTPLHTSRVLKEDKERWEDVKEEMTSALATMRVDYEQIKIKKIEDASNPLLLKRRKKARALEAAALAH

[21] = tested on: Mast/stem cell growth factor receptor Kit (Homo sapiens), P10721 [V559D,T670I]; details: Compound concentration 1000.0 nM

Sequence of Calcium/calmodulin-dependent protein kinase type II subunit alpha (Homo sapiens) (Q9UQM7 whole entry): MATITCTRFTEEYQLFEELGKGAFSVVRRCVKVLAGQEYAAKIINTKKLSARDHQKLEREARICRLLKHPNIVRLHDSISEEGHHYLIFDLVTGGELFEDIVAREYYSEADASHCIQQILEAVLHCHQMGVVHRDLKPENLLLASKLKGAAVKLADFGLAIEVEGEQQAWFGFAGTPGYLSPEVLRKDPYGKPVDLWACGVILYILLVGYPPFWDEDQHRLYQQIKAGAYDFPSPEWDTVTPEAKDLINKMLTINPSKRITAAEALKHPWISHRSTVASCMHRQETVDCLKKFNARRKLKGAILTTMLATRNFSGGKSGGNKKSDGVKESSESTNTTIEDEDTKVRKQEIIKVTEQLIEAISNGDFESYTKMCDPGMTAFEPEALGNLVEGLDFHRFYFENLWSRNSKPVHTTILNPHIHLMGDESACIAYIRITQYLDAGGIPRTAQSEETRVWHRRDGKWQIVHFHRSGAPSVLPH

Row | SMILES | residual activity [1] | residual activity [2] | residual activity [3] | residual activity [4] | residual activity [5] | residual activity [6] | residual activity [7] | residual activity [8] | residual activity [9] | residual activity [10] | residual activity [11] | residual activity [12] | inhibition [13] | residual activity [14] | residual activity [15] | residual activity [16] | residual activity [17] | residual activity [18] | residual activity [19] | residual activity [20] | other results
1 | CC1=C(C#N)C(c2ccc3c(c2)c(NC(=O)c2ccccc2C)nn3C)C(C#N)=C(C)N1 [BAY-974] | 73% | 90% | 100% | 94% | 82% | 80% | 100% | 84% | 100% | 88% | 94% | 97% | 11.4% | 89% | 64% | 100% | 100% | 91% | 100% | 84% | residual activity [21]: 100%
2 | CCc1ccccc1C(=O)Nc1n[nH]c2c(C)c(F)c(C3C(C#N)=C(C)N(C)C(C)=C3C#N)cc12 [BAY-3827] | 79% | 47% | 92% | 75% | 89% | 86% | 100% | 82% | 100% | 100% | 99% | 100% | 2.66% | 100% | 100% | 98% | 100% | 99% | 91% | 100% | residual activity [21]: 98%

From ChEMBL document CHEMBL4507319 (2021)
